Residues, ends and D or L forms follow the SMILES beside them.
Experiments:
[1] = target: T1, PKG Iα (Bos taurus, UniProt P00516); assay: 32P-incorporation assay, activation of PKG Iα by SW peptides; assay type: biochemical
T1 construct: made in house
T1 sequence (P00516 1-671): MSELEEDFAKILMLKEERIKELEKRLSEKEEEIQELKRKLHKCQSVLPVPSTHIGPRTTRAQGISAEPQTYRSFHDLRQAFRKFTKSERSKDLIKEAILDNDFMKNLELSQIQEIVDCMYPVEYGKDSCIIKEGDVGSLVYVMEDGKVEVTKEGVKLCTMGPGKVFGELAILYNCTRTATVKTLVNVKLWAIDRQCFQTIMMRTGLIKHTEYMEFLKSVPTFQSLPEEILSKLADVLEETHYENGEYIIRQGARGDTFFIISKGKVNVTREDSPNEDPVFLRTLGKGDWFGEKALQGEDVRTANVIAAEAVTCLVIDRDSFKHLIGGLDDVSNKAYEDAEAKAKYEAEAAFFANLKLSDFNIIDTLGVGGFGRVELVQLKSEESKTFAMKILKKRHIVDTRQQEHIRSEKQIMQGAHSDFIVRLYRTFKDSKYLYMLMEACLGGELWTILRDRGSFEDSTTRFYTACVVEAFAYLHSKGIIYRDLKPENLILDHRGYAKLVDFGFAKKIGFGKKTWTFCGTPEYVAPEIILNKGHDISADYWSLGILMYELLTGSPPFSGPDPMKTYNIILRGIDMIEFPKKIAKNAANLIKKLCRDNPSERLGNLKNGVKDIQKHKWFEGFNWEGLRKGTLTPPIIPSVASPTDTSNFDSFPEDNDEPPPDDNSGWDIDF
Excerpt: Starting with the 29-mer peptide (329-358), covering the full length of the switch helix, an array of peptide derivatives were synthesized to study the contributions from different segments of the SW helix peptide towards the functional phenotype of PKG Iα. Circular dichroism spectroscopy confirmed that the 29-mer SW peptide adopted a helical secondary structure. […] The activity of this short peptide is surprising. To activate the kinase, this non-helical 8-mer peptide first has to adopt the active helical conformation to activate PKG. However, this finding provides critical support in favor that the confined knob/nest interaction site may serve as a novel target site for non-cyclic nucleotide driven activation of PKG.
The isolation of the SW independent from the kinase allows us to discretely probe the nest in future studies using native and non-native amino acids. Moreover, the use of the SW: 329-358 allows us to answer more fundamental questions about the nature of the regulatory and catalytic domains and the communication between the B-site and the nest. […] The structure of this inhibitor contains a β-phenyl-1,N^2-etheno group attached to the pyrimidine ring. We hypothesized previously, based upon structural observations, that the presence of this phenyl group in the syn orientation effectively blocks PBC closure and reduces the potency of the SW:329-358 in a dose-dependent manner.
Determination of activation constants was performed using a [γ-^32P]-ATP transfer assay as previously reported (Ruth et al., 1991; Tegge et al., 1995). […] Aliquots, spotted on P81 Whatman paper were subjected to scintillation counting. All experiments were performed in the presence of the PKA-specific inhibitor, PKI^5-24 (70 nM) to suppress endogenous PKA activity.

[2] = target: T1, PKG Iα; conditions: Butt et al., 1995; cited from earlier work
[3] = tested on: KCa1.1 channels; assay: Inside-out patch clamp, open probability of single KCa1.1 channels in membrane patches from VSM cells reconstituted with recombinant PKG; assay type: cell-based; conditions: rat posterior cerebral artery VSM cells, with PKG Iα and ATP
Excerpt: FIG. 4: SW:329-358 activates single KCa channels in inside-out membrane patches excised from cerebral artery myocytes.
Once we had supporting evidence that molecules carrying the knob-type ligand conformation were capable of activating PKG we set out to determine if this novel mechanism of kinase activation was functionally relevant. The high conductance calcium-activated potassium channel KCa1.1 is a well-established intracellular target of […] in vascular smooth muscle (VSM) cells. Using inside-out patch clamp configurations from freshly dissociated VSM cells from rat posterior cerebral arteries, we measured the changes of open probability (NPO) of single KCa1.1 channels in response to PKG stimulation in membrane patches excised from freshly-dissociated vascular smooth muscle cells (FIG. 4).

For `O=c1c2nc(Br)n([C@@H]3O[C@@H]4CO[P@@](O)(=S)O[C@H]4[C@H]3O)c2nc2[nH]c(-c3ccccc3)cn12` [Rp-PET, (RP)-8-Br-PET-cGMPS], the “effect of Rp-PET on activation constant of PKG Iα by SW:329-358” value ([1]; Rp-PET titrated into activation reactions) is given as “linear response of the activation constant to the amount of Rp-PET titrated” and the “affinity for PKG Iα regulatory domain binding sites relative to cGMP” value [2] is given as “higher affinity for the PHG Iα regulatory domain binding sites than cGMP”.
In the case of “SW:329-349: SW-peptide derivative with additional removal of the knob residues (DVSNKAYEDAEAKAKYEAEAA)”, the “activation of PKG Iα” value ([1]; under cGMP priming conditions) is reported as “completely inactive”.
For `CC(C)C[C@H](NC(=O)[C@H](CC(N)=O)NC(=O)[C@H](C)NC(=O)[C@H](Cc1ccccc1)NC(=O)[C@H](Cc1ccccc1)NC(=O)[C@H](C)NC(=O)[C@H](C)N)C(=O)N[C@@H](CCCCN)C(=O)O` [SW:348-355] (H-AAFFANLK-OH; N-terminus and C-terminus assumed), the Emax ([1]; read-out: activation relative to activation associated with cGMP, 8-mer knob peptide) was 30%.
In the case of `Nc1nc2c(ncn2[C@@H]2O[C@@H]3COP(=O)(O)O[C@H]3[C@H]2O)c(=O)[nH]1` [cGMP], the “KCa1.1 channel open probability (NPO)” value [3] is reported as “significantly increased”.
